Values quoted from earlier work in PMC3527451, “A Pilot Randomized, Placebo Controlled, Double Blind Phase I Trial of the Novel SIRT1 Activator SRT2104 in Elderly Volunteers” (PLoS ONE, 2012).
Entries after “also recorded” stand apart in the source; their conditions may differ. Where two headings read alike, the source gives them in different places.

Columns and labels:
dog = test system: dog; set-up: method as in SRT2104 Investigator's Brochure; settings: ref SRT2104 Investigator's Brochure, cited from earlier work
rats and dogs = test system: rats and dogs; set-up: method as in ref 17, 18; SRT2104 Investigator's Brochure; settings: acute safety pharmacology, doses up to 2.0 g/kg; SRT2104 Investigator's Brochure; cited from earlier work
[1] = cited from earlier work
[2] = cited from earlier work; remark: listed apart in the source
DIO mice and ob/ob mice = settings: cited from earlier work
[3] = once daily oral administration, ref SRT2104 Investigator's Brochure

In the case of `Cc1nc(-c2cccnc2)sc1C(=O)Nc1ccccc1-c1cn2c(CN3CCOCC3)csc2n1` [SRT2104], the tolerability (dog; dog, up to 2.0 g/kg for 28 days) is given as “well tolerated at all doses”, the “increase in indirect bilirubin” value (dog; female dogs, 2.0 g/kg/day group) is given as less than 2 X and the NOAEL (dog; male and female dogs, 28 days) is given as 1000 mg/kg. The “central nervous system, cardiovascular system and pulmonary effects” value (rats and dogs) was “no central nervous system (CNS), cardiovascular system (CVS) or pulmonary effects; also recorded: not associated with adverse central nervous system, cardiovascular system, or pulmonary effects”, the “effect of food on overall exposure” value ([1]; 0.5 and 2.0 g doses, standardized solid meal vs fasted state) was “increase exposure levels; also recorded: increase in overall exposure” and the “effect of food on inter-subject variability in exposure” value ([1]; fed state vs fasted state) was “substantial reduction in inter-subject variability”. For the same compound, the “dose proportionality of AUC(0-t) and Cmax” value ([2]; dose range 0.03 to 1.0 g/day) was “approximate dose proportionality”, the “dose proportionality of AUC(0-t) and Cmax” value ([2]; doses greater than 1.0 g/day up to 3.0 g/day) was “less than dose proportional increase between 1.0–3.0 g/day” and the “effect of dose on elimination half-life (t1/2)” value ([2]; doses up to 3.0 g/day) was “not affected by dose; also recorded: similar”. The “terminal elimination half-life (t½)” value ([2]; healthy male volunteers, 0.03 – 3.0 g/day, liquid suspension, ref SRT-2104-001 (19)) was 8 to 24 h, the “cholesterol, LDL and triglycerides in preclinical models of dyslipidemia, diabetes and obesity” value (DIO mice and ob/ob mice; e.g. DIO and Lep ob/ob obese mice) was “lower cholesterol, LDL and triglycerides” and the “glucose and insulin levels” value (DIO mice and ob/ob mice; once daily oral 0.1 g/kg for 7 days or more, ref SRT2104 Investigator's Brochure) was “reduces glucose and insulin levels”. For the same compound, the body weight (DIO mice and ob/ob mice; [3]) was “No effect on body weight”, the “fasting blood glucose and fed insulin” value (DIO mice and ob/ob mice; [3]) was “lowered” and the “response to a glucose tolerance test” value (DIO mice and ob/ob mice; [3]) was “enhanced the response to a glucose tolerance test”. For the same compound, the “adverse reactions in mouse models of diabetes” value (DIO mice and ob/ob mice; up to 0.3 g/kg orally once daily for 28 days, ref SRT2104 Investigator's Brochure) was “No adverse reactions”.
